Results taken from patent US8598183B2, “Solid state forms of a potent HCV inhibitor” (Boehringer Ingelheim International GmbH, priority 2010, dated 2013).

Assay: Powder dissolution of triturated mixtures in capsules in 500 mL pH 6.8 buffer
Type: physicochemical
Details: for % Release, Average of n = 2 (range) / % Release, average / % Release / % Release, average (range): capsule; for % Release, average: 200 mg drug + Meglumine 100 mg; for % Release: 200 mg drug + Pluronic acid 100 mg, n = 1
Excerpt: One class of solubilizer excipients, basifiers, act by increasing the microenvironment pH and thereby increasing the local solubility of the drug (for a drug containing an acid moiety). Another class of solubilizer excipients, surfactants, also act by increasing the local solubility of the drug. […] For example, an enhancement in dissolution was obtained when surfactants, for example, sodium lauryl sulfate or Vitamin E TPGS, were used in combination with basifiers, for example, L-arginine, meglumine or L-lysine. […] For example, only 1% drug release was obtained when Compound (1) sodium salt crystalline was present. The % drug release was 54% at 60 minutes in the presence of 100 mg Arginine alone and 59% in the presence of Sodium lauryl sulfate alone (Table 2). However, in presence of 100 mg of Arginine along with 100 mg of Sodium lauryl sulfate, the % drug release increased to 93% at 60 minutes (Table 3) indicating enhancement in dissolution when both surfactant and basifier were used in combination.

With Cn1c(C2(NC(=O)c3ccc4c(C5CCCC5)c(-c5ncc(Br)cn5)n(C)c4c3)CCC2)nc2ccc(/C=C/C(=O)[O-])cc21.[Na+] [Compound (1) sodium salt] the “% Release, Average of n = 2 (range)” value (200 mg drug + Lysine + SDS (100 mg + 100 mg), 60 min) was 85 (85-86) %, the “% Release, Average of n = 2 (range)” value (200 mg drug + Lysine + SDS (100 mg + 100 mg), 90 min) was 85 (84-85) % and the “% Release, Average of n = 2 (range)” value (200 mg drug + Lysine + VitE TPGS (40 mg + 20 mg), 15 min) was 37 (33-41) %. The “% Release, Average of n = 2 (range)” value (200 mg drug + Lysine + VitE TPGS (40 mg + 20 mg), 30 min) was 69 (69-70) %, the “% Release, Average of n = 2 (range)” value (200 mg drug + Lysine + VitE TPGS (40 mg + 20 mg), 60 min) was 71 (70-72) % and the “% Release, Average of n = 2 (range)” value (200 mg drug + Lysine + VitE TPGS (100 mg + 100 mg), 15 min) was 42 (29-55) %. The “% Release, Average of n = 2 (range)” value (200 mg drug + Lysine + VitE TPGS (100 mg + 100 mg), 30 min) was 79 (77-81) %, the “% Release, Average of n = 2 (range)” value (200 mg drug + Lysine + VitE TPGS (100 mg + 100 mg), 60 min) was 83 (82-83) % and the “% Release, Average of n = 2 (range)” value (200 mg drug + Lysine + VitE TPGS (100 mg + 100 mg), 90 min) was 81 (81-82) %. The “% Release, average” value (90 (infinity), n = 2) was 49%, the “% Release, average” value (15 min, n = 2) was 47% and the “% Release, average” value (30 min, n = 2) was 48%. The “% Release, average” value (60 min, n = 2) was 48%, the “% Release, Average of n = 2 (range)” value (200 mg drug + Meglumine + SDS (40 mg + 20 mg), 15 min) was 66 (61-71) % and the “% Release, Average of n = 2 (range)” value (200 mg drug + Meglumine + SDS (40 mg + 20 mg), 30 min) was 73 (71-75) %. The “% Release, Average of n = 2 (range)” value (200 mg drug + Meglumine + SDS (40 mg + 20 mg), 60 min) was 70 (69-71) %, the “% Release, Average of n = 2 (range)” value (200 mg drug + Meglumine + SDS (40 mg + 20 mg), 90 min) was 68 (67-69) % and the “% Release, Average of n = 2 (range)” value (200 mg drug + Meglumine + SDS (100 mg + 100 mg), 15 min) was 81 (79-83) %. The “% Release, Average of n = 2 (range)” value (200 mg drug + Meglumine + SDS (100 mg + 100 mg), 30 min) was 87 (86-88) %, the “% Release, Average of n = 2 (range)” value (200 mg drug + Meglumine + SDS (100 mg + 100 mg), 60 min) was 83 (80-87) % and the “% Release, Average of n = 2 (range)” value (200 mg drug + Meglumine + SDS (100 mg + 100 mg), 90 min) was 86 (85-87) %. The “% Release, Average of n = 2 (range)” value (200 mg drug + Meglumine + VitE TPGS (40 mg + 20 mg), 15 min) was 52 (33-70) %, the “% Release, Average of n = 2 (range)” value (200 mg drug + Meglumine + VitE TPGS (40 mg + 20 mg), 30 min) was 73 (73-73) % and the “% Release, Average of n = 2 (range)” value (200 mg drug + Meglumine + VitE TPGS (40 mg + 20 mg), 60 min) was 73 (73-74) %. For the same molecule, the “% Release, Average of n = 2 (range)” value (200 mg drug + Meglumine + VitE TPGS (40 mg + 20 mg), 90 min) was 71 (70-72) %, the “% Release, Average of n = 2 (range)” value (200 mg drug + Meglumine + VitE TPGS (100 mg + 100 mg), 15 min) was 81 (81-81) % and the “% Release, Average of n = 2 (range)” value (200 mg drug + Meglumine + VitE TPGS (100 mg + 100 mg), 30 min) was 85 (84-86) %. The “% Release, Average of n = 2 (range)” value (200 mg drug + Meglumine + VitE TPGS (100 mg + 100 mg), 60 min) was 86 (84-87) %, the “% Release, Average of n = 2 (range)” value (200 mg drug + Meglumine + VitE TPGS (100 mg + 100 mg), 90 min) was 82 (80-84) % and the “% Release” value (90 (infinity)) was 13%. For the same molecule, the “% Release” value (15 min) was 3%, the “% Release” value (30 min) was 12% and the “% Release” value (60 min) was 12%. For the same molecule, the “% Release, average (range)” value (200 mg drug + SDS 100 mg, 90 (infinity), n = 2) was 49 (45-53) %, the “% Release, average (range)” value (200 mg drug + SDS 100 mg, 15 min, n = 2) was 57 (56-57) % and the “% Release, average (range)” value (200 mg drug + SDS 100 mg, 30 min, n = 2) was 61 (60-63) %. For the same molecule, the “% Release, average (range)” value (200 mg drug + SDS 100 mg, 60 min, n = 2, listed as Compound (1) Na Salt) was 59 (58-60) %, the “% Release, average (range)” value (200 mg drug + SDS 100 mg, 60 min, n = 2, listed as Compound (1) sodium salt crystalline) was 59% and the “% Release, average (range)” value (200 mg drug + Tris 100 mg, 90 (infinity), n = 3) was 41 (33-46) %. For the same molecule, the “% Release, average (range)” value (200 mg drug + Tris 100 mg, 15 min, n = 3) was 40 (34-43) %, the “% Release, average (range)” value (200 mg drug + Tris 100 mg, 60 min, n = 3) was 44 (35-48) % and the “% Release, average (range)” value (200 mg drug + Vit E TPGS 100 mg, 90 (infinity), n = 2) was 27 (27-27) %. For the same molecule, the “% Release, average (range)” value (200 mg drug + Vit E TPGS 100 mg, 15 min, n = 2) was 24 (24-24) %, the “% Release, average (range)” value (200 mg drug + Vit E TPGS 100 mg, 30 min, n = 2) was 27 (27-27) % and the “% Release, average (range)” value (200 mg drug + Vit E TPGS 100 mg, 60 min, n = 2) was 27 (27-27) %. The “% Release, average (range)” value (Drug alone 200 mg, 90 (infinity), n = 2) was 1 (1-2) %, the “% Release, average (range)” value (Drug alone 200 mg, 15 min, n = 2) was 1 (1-1) % and the “% Release, average (range)” value (Drug alone 200 mg, 30 min, n = 2) was 1 (1-1) %. The “% Release, average (range)” value (Drug alone 200 mg, 60 min, n = 2) was 1 (1-2) % and the “% drug release” value (drug alone, no basifier or surfactant, time not stated) was 1%.
